Measured values as given in patent US20140018426A1, “FOOD OR BEVERAGE COMPOSITION FORTIFIED WITH THYRONAMINES AND/OR THYRONAMINE PRECURSORS” (priority 2009, published 2014).
Several values for one entry are separate records, joined by “and”; a condition that tells them apart may be missing. Identical values can stand only once. Like-named read-outs stand apart in the source and are kept apart here.

Experiments:
mice [1] = details: cited from earlier work
dopamine transporter = dopamine transporter (Homo sapiens, UniProt Q01959); details: cited from earlier work
[2] = molecular target: serotonin 5HT-2c receptor (Homo sapiens, UniProt P28335); details: cited from earlier work
[3] = molecular target: norepenephrin transporter (Homo sapiens, UniProt P23975); details: cited from earlier work
serotonin transporter = serotonin transporter (Homo sapiens, UniProt P31645); details: cited from earlier work
[4] = system: Siberian hamsters (Phodopus sungorus); details: cited from earlier work
[5] = system: middle cerebral artery occlusion (MCAO) stroke model in mice; details: cited from earlier work
mice [6] = details: cited from earlier work; remark: listed apart in the source
[7] = molecular target: trace amine-associated receptor 1 (TAAR1) (Homo sapiens, UniProt Q96RJ0); details: cited from earlier work
[8] = molecular target: alpha-2A adrenergic receptor (Homo sapiens, UniProt P08913); details: cited from earlier work
mice [9] = details: single dose T1AM (normal 0.83); cited from earlier work
[10] = system: vesicular monoamine transporter; details: cited from earlier work
[11] = system: rat working heart preparation; details: cited from earlier work
[12] = Body weight, LDLr+/− mice on Western Diet, daily oral T2; assay type: in vivo; set-up: Body weight, Ave: unit not given here
Text: (§1) Mice in the study were fed a standard lab chow referred to as the “Western Diet.” The overall level of fat and the saturated nature of the fat are representative diets typical in the industrialized west that are linked to risk of cardiovascular disease in humans. The formula is used primarily with genetically manipulated rodent models that are susceptible to high cholesterol and cardiovascular disease. The diet may also be useful in diet-induced obesity, diabetes, and metabolic syndrome models. High cholesterol, obesity, and diabetes are each associated increased risk for cardiovascular disease. The composition of the Western Diet is shown below in Table 1.
(§2) C57 is a wild-type strain, LDLr+/− are a strain carrying one functional copy of the LDLr gene, and the LDLrO animals are total LDLr knockouts. The LDLr gene encodes for the LDL receptor protein, which is responsible for scavenging LDL with bound cholesterol from the blood and transporting it into cells. Both heterozygous and homozygous LDLr knockout animals develop very high serum cholesterol levels and are considered to be a good model for heterozygous and homozygous familial hypercholesterolemia in humans.
(§3) LDLr knockout animals have zero LDL receptor function. […] This effect was independent of weight loss.

rats = details: 250 mcg/kg p.o. q.d. for 30 days, compared to controls; cited from earlier work
[13] = Body weight, C57 mice on Western Diet, daily oral T2; assay type: in vivo
Text: as §1, §2, §3

TR β gene expression = details: cited from earlier work
C57 [14] = test: Serum triglycerides, C57 mice on Western Diet, daily oral T2; assay type: in vivo; details: C57, low and high dose T2
Text: as §1, §2, §3

LDLr0 [15] = test: Serum triglycerides, LDLr knockout mice on Western Diet, daily oral T2; assay type: in vivo; details: low and high dose T2
Text: as §1, §2, §3

C57 [16] = test: Blood Sugar (serum glucose), C57 mice on Western Diet, daily oral T2; assay type: in vivo; details: for Blood Sugar, individual animal: C57 mice, Western Diet
Text: as §1, §2, §3

LDLr+/− [17] = test: Blood Sugar (serum glucose), LDLr+/− mice on Western Diet, daily oral T2; assay type: in vivo; details: for Blood Sugar, individual animal: LDLr+/− mice, Western Diet
Text: as §1, §2, §3

[18] = system: thyroid receptor homodimer; details: in contrast to T3; cited from earlier work
LDLr0 [19] = test: Blood Sugar (serum glucose), LDLr knockout mice on Western Diet, daily oral T2; assay type: in vivo; details: for Blood Sugar, individual animal: LDLr0 mice, Western Diet
Text: as §1, §2, §3

LDLr+/− [20] = test: Serum triglycerides, LDLr+/− mice on Western Diet, daily oral T2; assay type: in vivo; details: low and high dose T2
Text: as §1, §2, §3

[21] = Body weight, LDLr knockout mice on Western Diet, daily oral T2; assay type: in vivo
Text: as §1, §2, §3

[22] = system: growth hormone gene expression; details: cited from earlier work
[23] = system: hypercholesterolemic patients; details: cited from earlier work; for decrease in body weight: 300 mg daily for 8 months
TR α1, β1 and β2 = details: in vitro studies; cited from earlier work

Sequence of alpha-2A adrenergic receptor (P08913 whole entry): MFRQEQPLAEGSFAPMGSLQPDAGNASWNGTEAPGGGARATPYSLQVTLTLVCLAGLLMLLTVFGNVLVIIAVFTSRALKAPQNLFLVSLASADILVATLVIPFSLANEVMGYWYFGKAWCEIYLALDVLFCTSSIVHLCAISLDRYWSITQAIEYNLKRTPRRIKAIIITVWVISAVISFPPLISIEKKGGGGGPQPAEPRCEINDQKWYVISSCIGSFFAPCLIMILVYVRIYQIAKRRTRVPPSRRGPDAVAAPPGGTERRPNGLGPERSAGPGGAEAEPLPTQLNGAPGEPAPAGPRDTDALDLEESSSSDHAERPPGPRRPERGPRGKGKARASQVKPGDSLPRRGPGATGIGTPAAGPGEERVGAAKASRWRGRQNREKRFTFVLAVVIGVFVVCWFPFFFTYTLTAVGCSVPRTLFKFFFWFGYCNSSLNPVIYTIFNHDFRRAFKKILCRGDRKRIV
Sequence of norepenephrin transporter (P23975 whole entry): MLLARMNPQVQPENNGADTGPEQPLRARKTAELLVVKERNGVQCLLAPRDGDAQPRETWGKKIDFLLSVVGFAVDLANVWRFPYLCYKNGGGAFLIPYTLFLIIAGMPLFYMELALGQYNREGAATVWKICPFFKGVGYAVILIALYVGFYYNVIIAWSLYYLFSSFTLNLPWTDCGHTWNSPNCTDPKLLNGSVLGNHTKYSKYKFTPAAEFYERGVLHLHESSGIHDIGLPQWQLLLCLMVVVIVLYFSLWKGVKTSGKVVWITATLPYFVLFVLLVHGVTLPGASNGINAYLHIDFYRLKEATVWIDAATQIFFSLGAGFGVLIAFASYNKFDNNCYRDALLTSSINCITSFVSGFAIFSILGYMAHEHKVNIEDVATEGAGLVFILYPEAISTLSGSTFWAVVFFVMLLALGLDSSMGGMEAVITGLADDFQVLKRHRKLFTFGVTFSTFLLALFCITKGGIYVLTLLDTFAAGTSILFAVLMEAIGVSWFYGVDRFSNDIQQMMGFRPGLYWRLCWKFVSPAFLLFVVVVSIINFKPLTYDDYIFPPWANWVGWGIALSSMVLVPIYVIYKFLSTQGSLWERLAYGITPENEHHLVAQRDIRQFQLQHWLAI
Sequence of trace amine-associated receptor 1 (TAAR1) (Q96RJ0 whole entry, species assumed): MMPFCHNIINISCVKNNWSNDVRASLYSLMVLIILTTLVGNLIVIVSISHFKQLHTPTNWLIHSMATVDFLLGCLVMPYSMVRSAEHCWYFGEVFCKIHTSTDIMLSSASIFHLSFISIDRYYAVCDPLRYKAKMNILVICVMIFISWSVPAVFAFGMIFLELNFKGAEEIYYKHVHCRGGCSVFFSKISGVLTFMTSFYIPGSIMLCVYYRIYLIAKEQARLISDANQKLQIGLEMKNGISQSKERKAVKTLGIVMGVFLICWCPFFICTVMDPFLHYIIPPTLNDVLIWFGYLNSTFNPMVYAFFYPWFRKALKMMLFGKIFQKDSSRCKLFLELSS
Sequence of serotonin transporter (P31645 whole entry): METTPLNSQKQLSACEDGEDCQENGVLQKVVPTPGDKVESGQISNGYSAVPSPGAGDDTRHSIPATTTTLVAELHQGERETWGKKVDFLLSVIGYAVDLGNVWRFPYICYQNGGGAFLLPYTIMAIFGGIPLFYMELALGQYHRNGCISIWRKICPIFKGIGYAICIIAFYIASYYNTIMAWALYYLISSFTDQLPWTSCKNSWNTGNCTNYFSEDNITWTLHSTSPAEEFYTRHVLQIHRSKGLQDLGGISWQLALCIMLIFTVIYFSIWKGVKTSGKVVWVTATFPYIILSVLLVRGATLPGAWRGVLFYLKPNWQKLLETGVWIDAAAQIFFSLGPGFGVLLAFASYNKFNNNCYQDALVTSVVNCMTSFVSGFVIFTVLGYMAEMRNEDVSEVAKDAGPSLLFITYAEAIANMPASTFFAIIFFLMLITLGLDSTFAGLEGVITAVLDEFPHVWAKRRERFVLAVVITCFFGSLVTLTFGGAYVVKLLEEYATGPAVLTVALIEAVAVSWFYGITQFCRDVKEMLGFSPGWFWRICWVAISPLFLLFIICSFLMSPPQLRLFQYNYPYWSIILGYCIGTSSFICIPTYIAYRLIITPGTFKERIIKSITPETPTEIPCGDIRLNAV
Sequence of dopamine transporter (Q01959 whole entry): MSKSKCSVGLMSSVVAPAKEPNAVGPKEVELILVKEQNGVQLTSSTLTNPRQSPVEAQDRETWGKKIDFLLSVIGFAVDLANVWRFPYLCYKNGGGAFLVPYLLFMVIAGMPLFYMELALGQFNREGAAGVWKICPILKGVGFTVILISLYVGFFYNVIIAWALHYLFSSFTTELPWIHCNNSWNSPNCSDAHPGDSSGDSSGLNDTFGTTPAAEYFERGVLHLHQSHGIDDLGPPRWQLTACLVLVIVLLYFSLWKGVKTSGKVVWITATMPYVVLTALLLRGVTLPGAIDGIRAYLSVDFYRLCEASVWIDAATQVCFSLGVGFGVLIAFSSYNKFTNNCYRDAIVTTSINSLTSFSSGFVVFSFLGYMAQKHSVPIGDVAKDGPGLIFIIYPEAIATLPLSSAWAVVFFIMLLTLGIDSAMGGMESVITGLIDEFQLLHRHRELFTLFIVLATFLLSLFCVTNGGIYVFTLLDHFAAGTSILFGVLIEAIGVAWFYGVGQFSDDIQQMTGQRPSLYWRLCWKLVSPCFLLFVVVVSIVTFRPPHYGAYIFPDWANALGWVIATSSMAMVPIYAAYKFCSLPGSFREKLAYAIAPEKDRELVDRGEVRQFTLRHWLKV
Sequence of serotonin 5HT-2c receptor (P28335 33-458): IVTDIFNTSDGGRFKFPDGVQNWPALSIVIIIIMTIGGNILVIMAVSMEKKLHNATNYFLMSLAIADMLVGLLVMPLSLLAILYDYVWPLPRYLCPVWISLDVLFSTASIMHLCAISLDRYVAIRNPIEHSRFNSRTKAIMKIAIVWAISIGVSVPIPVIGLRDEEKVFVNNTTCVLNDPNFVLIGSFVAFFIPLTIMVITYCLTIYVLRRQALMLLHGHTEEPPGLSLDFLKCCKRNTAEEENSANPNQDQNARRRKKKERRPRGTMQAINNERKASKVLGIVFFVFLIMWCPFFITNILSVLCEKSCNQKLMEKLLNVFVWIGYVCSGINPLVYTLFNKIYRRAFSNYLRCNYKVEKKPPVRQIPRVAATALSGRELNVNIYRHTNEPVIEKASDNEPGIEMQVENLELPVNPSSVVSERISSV

## NCCc1ccc(Oc2ccc(O)cc2)c(I)c1 [T1AM, 3-iodothyronamine]
Mice [1]; mice, depending on the T1AM dose
  time for body temperature to return to normal: 4 to 6 h
Mice [1]; mice, injection
  drop in body temperature: about 10 °C
Mice [1]; mice
  time of body temperature nadir after injection: about 1 hour
Dopamine transporter
  dopamine transporter function: binds and inhibits
[2]
  serotonin 5HT-2c receptor activity: agonist
[3]
  norepenephrin transporter function: binds and inhibits
Serotonin transporter
  serotonin transporter function: binds and inhibits
[4]; Siberian hamsters, single dose T1AM (normal 0.90)
  respiratory quotient (RQ) value: approximately 0.7
[4]; Siberian hamsters
  time of urine ketone content peak post-injection: 16 h
[4]; in vivo
  time to complete RQ shift post-injection: about 4.5 hours
[4]; summer acclimatized Siberian hamsters
  persistence of 0.7 RQ after the T1AM injection: at least 24 h
[5]
  reduction of infarct volume: 40%
Mice [6]
  time for blood glucose to return to baseline: 3 to 4 h
  time of blood glucose peak after the injection: 1 h
Mice [6]; injection, at peak
  increased blood glucose: 2-5 fold
[7]
  TAAR1 activity: potent agonist
[8]
  alpha-2A adrenergic receptor activity: agonist
Mice [9]
  respiratory quotient (RQ) value: approximately 0.7
[10]
  vesicular monoamine transporter function: binds and inhibits
[11]; rat working heart at 37° C., compound in perfusion buffer
  heart rate and systolic aortic pressure: large and immediate decreases

## N[C@@H](Cc1cc(I)c(Oc2ccc(O)cc2)c(I)c1)C(=O)O [T2, (2S)-2-amino-3-[4-(4-hydroxyphenoxy)-3,5-diiodophenyl]propanoic acid]
[12]; High Dose T2, Day 1, individual animal, in g (unit assumed)
  Body weight: 31.4
[12]; High Dose T2, Day 2, individual animal, in g (unit assumed)
  Body weight: 31.0 and 29.1 and 29.9
[12]; High Dose T2, Day 4, individual animal, in g (unit assumed)
  Body weight: 29.0 and 27.9
[12]; Low Dose T2, Day 2, group average
  Body weight, Ave: 28.1
[12]; Low Dose T2, Day 2, individual animal
  Body weight: 282
[12]; Low Dose T2, Day 3, individual animal
  Body weight: 29.7 and 31.4
[12]; Low Dose T2, Day 4, individual animal
  Body weight: 27.4
[12]; Low Dose T2, Day 5, individual animal
  Body weight: 29.5
[12]; Low Dose T2, Day 6, individual animal
  Body weight: 29.1
[12]; Low Dose T2, Day 7, individual animal
  Body weight: 31.0 and 29.6 (2×) and 28.2
[12]; low and high dose T2
  effect on weight gain: did not affect
rats
  decrease body weight: 13%
  decrease hepatic fat mass: 50%
  increase hepatic fat oxidation: 42%
  lower cholesterol: 18%
  lower serum triglycerides: 52%
[13]; C57, High Dose T2, Day 1, group average
  Body weight, Ave: 28.1 g
[13]; C57, High Dose T2, Day 1, individual animal
  Body weight: 29.6 (2×) and 24.9 and 26.7
[13]; C57, High Dose T2, Day 2, individual animal, in g (unit assumed)
  Body weight: 29.5 and 25.8 and 29.7
[13]; C57, High Dose T2, Day 3, individual animal, in g (unit assumed)
  Body weight: 25.1 and 29.9 and 27.2
[13]; C57, High Dose T2, Day 4, individual animal, in g (unit assumed)
  Body weight: 29.1 and 28.7
[13]; C57, High Dose T2, Day 5, individual animal, in g (unit assumed)
  Body weight: 29.1 and 28.5
[13]; C57, Low Dose T2, Day 2, individual animal
  Body weight: 24.9
[13]; C57, Low Dose T2, Day 4, individual animal
  Body weight: 25.1
[13]; C57, Low Dose T2, Day 6, individual animal
  Body weight: 29.9 and 24.8 and 28.7
[13]; C57, low and high dose T2
  effect on weight gain: did not affect
TR β gene expression
  less potent than T3 in decreasing TR β gene expression: 50%
C57 [14]
  effect on serum triglyceride levels: did not affect
LDLr0 [15]
  effect on serum triglyceride levels: did not affect
C57 [16]; 1 Week High Dose T2
  Blood Sugar, individual animal: 74 and 120 and 92
C57 [16]; 1 Week Low Dose T2
  Blood Sugar, individual animal: 190 and 120
C57 [16]; all genetic groups (C57), high doses of T2, vs controls
  lower blood sugar levels, average: 45-50%
LDLr+/− [17]; 1 Week High Dose T2
  Blood Sugar, individual animal: 99 and 94 and 80
LDLr+/− [17]; 1 Week Low Dose T2
  Blood Sugar, individual animal: 210
LDLr+/− [17]; all genetic groups (LDLr+/−), high doses of T2, vs controls
  lower blood sugar levels, average: 45-50%
[18]
  effect on thyroid receptor homodimer formation: no effect
LDLr0 [19]; 1 Week High Dose T2
  Blood Sugar, individual animal: 87
LDLr0 [19]; 1 Week Low Dose T2
  Blood Sugar, individual animal: 54 and 79
LDLr0 [19]; all genetic groups (LDLr knockout), high doses of T2, vs controls
  lower blood sugar levels, average: 45-50%
LDLr+/− [20]
  effect on serum triglyceride levels: did not affect
[21]; LDLr0, High Dose T2, Day 1, individual animal, in g (unit assumed)
  Body weight: 27.4
[21]; LDLr0, High Dose T2, Day 2, individual animal, in g (unit assumed)
  Body weight: 23.1 and 24.8
[21]; LDLr0, High Dose T2, Day 3, individual animal, in g (unit assumed)
  Body weight: 22.8
[21]; LDLr0, High Dose T2, Day 4, individual animal, in g (unit assumed)
  Body weight: 24.8
[21]; LDLr0, High Dose T2, Day 5, individual animal, in g (unit assumed)
  Body weight: 23.1
[21]; LDLr0, Low Dose T2, Day 6, individual animal
  Body weight: 23.1
[21]; LDLr knockout, low and high dose T2
  effect on weight gain: did not affect
[22]
  potency relative to T3 in increasing growth hormone gene expression: 1/100

## N[C@H](Cc1cc(I)c(Oc2ccc(O)cc2)c(I)c1)C(=O)O [3,5-D-T2]
[23]; 300 mg daily
  patients with coronary artery disease with increased anginal symptoms: 7 of 13
[23]; at 20 weeks, 300 mg daily
  total serum cholesterol decrease: 20%
[23]; euthyroid subjects
  decrease in body weight: 5%
[23]; human, in vivo
  effect of doses of less than 250 mg/day: ineffective
[23]; hypothyroid patients
  decrease in body weight: 8%
[23]; increase from 76, 300 mg daily
  mean heart rate on treatment: 88 beats per minute

## N[C@@H](Cc1cc(I)c(Oc2ccc(O)c(I)c2)c(I)c1)C(=O)O [T3, (2S)-2-amino-3-[4-(4-hydroxy-3-iodophenoxy)-3,5-diiodophenyl]propanoic acid]
TR α1, β1 and β2
  affinity for TR α1, β1 and β2, fold greater than that of T2: 40-500 fold

## NCCc1ccc(Oc2ccc(O)cc2)cc1 [T0AM, thyronamine]
Mice [1]; similar results reported as for T1AM
  potency on body temperature compared with T1AM: less potent
[11]; rat working heart preparation
  potency as compared to T1AM (fold less potent): about 10 fold
